Measured values reported in ChEMBL document CHEMBL1151645, “Constituents of Solanum dasyphyllum Fruit” (J Nat Prod, 1985).
Activity calls are given as the source filed them. No cut-off for these calls is given here.

Species: Mus musculus
Test: Anticonvulsant activity in mouse
Type: functional, organism-based

Compound: C[C@@H]1CC[C@@]2(NC1)O[C@H]1C[C@H]3[C@@H]4CC=C5C[C@@H](O[C@@H]6O[C@H](CO)[C@H](O)[C@H](O[C@@H]7O[C@H](CO)[C@@H](O)[C@H](O)[C@H]7O)[C@H]6O[C@@H]6O[C@@H](C)[C@H](O)[C@@H](O)[C@H]6O)CC[C@]5(C)[C@H]4CC[C@]3(C)[C@H]1[C@@H]2C
- Activity: inactive

Compound: C[C@@H]1CC[C@@]2(NC1)O[C@H]1C[C@H]3[C@@H]4CC=C5C[C@@H](O[C@@H]6O[C@H](CO)[C@@H](O[C@@H]7O[C@@H](C)[C@H](O)[C@@H](O)[C@H]7O)[C@H](O)[C@H]6O[C@@H]6O[C@@H](C)[C@H](O)[C@@H](O)[C@H]6O)CC[C@]5(C)[C@H]4CC[C@]3(C)[C@H]1[C@@H]2C
- Activity: inactive
